The values below come from publication PMC7717579, “Phosphoregulation of HORMA domain protein HIM-3 promotes asymmetric synaptonemal complex disassembly in meiotic prophase in Caenorhabditis elegans” (PLoS Genetics, 2020).

pKd: −log10 of the molar value. Non-standard residues stand in square brackets, D forms with d. Residues, ends and D or L forms follow the SMILES beside them. *: point of attachment. FITC = O=C1OC2(c3ccc(O)cc3Oc3cc(O)ccc32)c2ccc(NC(=S)*)cc21; pY = N[C@@H](Cc1ccc(OP(=O)(O)O)cc1)C(=O)O; pS = N[C@@H](COP(=O)(O)O)C(=O)O; Ahx = NCCCCCC(=O)O

For orientation: pKd means the negative decadic logarithm of the Kd, by convention in mol/L.

For this experiment, the target named is T1, HTP-2 protein (full length) (Caenorhabditis elegans, UniProt Q95XC8).
T1 sequence (Q95XC8 1-352): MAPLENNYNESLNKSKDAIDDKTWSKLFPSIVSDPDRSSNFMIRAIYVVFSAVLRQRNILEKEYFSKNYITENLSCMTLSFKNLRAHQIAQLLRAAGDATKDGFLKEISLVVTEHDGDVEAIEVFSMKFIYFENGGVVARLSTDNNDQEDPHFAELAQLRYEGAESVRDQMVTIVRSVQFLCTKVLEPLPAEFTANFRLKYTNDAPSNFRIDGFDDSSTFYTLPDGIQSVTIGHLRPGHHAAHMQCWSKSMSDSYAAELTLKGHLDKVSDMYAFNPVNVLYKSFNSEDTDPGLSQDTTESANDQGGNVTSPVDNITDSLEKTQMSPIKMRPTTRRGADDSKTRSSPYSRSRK
Briefly: Fluorescence polarization (FP) peptide binding assay. As to conditions: for Kd (HTP-2 binding): FP, 50 nM FITC-tagged HIM-3 closure motif peptide, various concentrations of bacterially purified full-length HTP-2, 20 mM Tris pH 7.5, 300 mM NaCl, 10% glycerol, 1 mM DTT, 0.1% NP-40, 1 hour at room temperature, single-site binding model, triplicated measurements. An excerpt: To understand regulation of meiotic proteins by post-translational modification, we previously carried out mass spectrometry to identify phosphorylated proteins in C. elegans adult hermaphrodites. […] We detected phosphopeptides containing Ser282 either singly or in combination with Ser274, Ser277, or Tyr279, and the most commonly-observed peptide contained doubly-phosphorylated Ser277/Ser282 (Fig 1A and S1 Table). Among the three most C-terminal phosphoresidues, which reside within the conserved closure motif, Tyr279 and Ser or Thr at position 282 are conserved features among nematode HIM-3 orthologs (Fig 1A). […] More recent studies further identified this C-terminus region containing Ser375 to be the closure motif, able to be bound by the HORMA domain of HORMAD1 itself and HORMAD2 [27, 34]. While phosphorylation at the closure motif is conserved between C. elegans HIM-3 and mouse HORMAD1 (S1 Fig), the function is not understood. Since other HORMA family proteins, HTP-1 and -2, are known to bind the HIM-3 closure motif in C. elegans, we first examined if phosphorylation affects HTP-1/2 binding to HIM-3 in vitro. A previous study has shown that both HTP-1 and -2 proteins bind unmodified HIM-3 peptides containing the closure motif in a fluorescence polarization (FP) peptide binding assay. Examination of the crystal structure resolved by the same study led us to predict that phosphorylation at Ser282 would likely interfere with HTP-1/2 binding (Fig 1B). We conducted a similar FP peptide binding assay using purified HTP-2 and fluorescently tagged HIM-3 closure motif peptides containing various modifications (Fig 1C).
Fig 1 Phosphorylation at the HIM-3 closure motif prevents HTP-1/2 binding in vitro. A, top: Schematic diagram of HIM-3, showing the HORMA domain (magenta) and phosphorylation sites identified by mass spectrometry in red. The conserved closure motif is underlined. bottom: Conservation of the Tyr and Ser/Thr, highlighted in orange, in the closure motif in eight Caenorhabditis species. B, left: Diagram of hierarchical binding of HTP-1, 2, 3 and HIM-3 from. center, diagram of possible multivalent binding modes of the axial element, based on. right, Interactions between the HIM-3 closure motif (magenta) and the HTP-2 (grey) HORMA domain shown in PDB structure 4TZL [27]. C, Fluorescence polarization peptide binding assay using bacterially purified HTP-2 protein (full length) and fluorescently tagged HIM-3 peptides with indicated phosphorylation or Ala substitution. Wild type means HIM-3 peptides with no phosphorylation. Phosphorylation at Ser282 inhibits HTP-2 binding in vitro. Error bars are calculated as the SD from triplicated measurements. […]
Fluorescein (FITC) conjugated peptides for the FP assay were synthesized by either Scrum Inc. or Eurofins Inc. as shown in S2 Table. […] For the fluorescence assay, synthesized peptides were first resuspended in DMSO, then diluted into binding buffer (20 mM Tris pH 7.5, 300 mM NaCl, 10% glycerol, 1 mM DTT, 0.1% NP-40). Reactions of 50 μl total volume containing 50 nM peptide and various concentrations of HTP-2 proteins were incubated for 1 hour at room temperature, then fluorescence polarization was measured in 384-well plates using a TECAN Infinite M1000 PRO fluorescence plate reader. Binding data were analyzed with Graphpad Prism version 6.0h for Macintosh (GraphPad Software, La Jolla California USA) using a single-site binding model.
In general terms: In fluorescence polarisation assays a small probe gives low polarisation when free and higher when bound to something large.

With `CC[C@H](C)[C@H](NC(=O)CNC(=O)[C@H](CCC(N)=O)NC(=O)[C@H](C)NC(=O)[C@H](CC(C)C)NC(=O)CNC(=O)[C@H](Cc1ccc(O)cc1)NC(=O)[C@@H]1CCCN1C(=O)[C@H](CO)NC(=O)[C@H](CC(=O)O)NC(=O)[C@H](CCCNC(=N)N)NC(=O)[C@H](CO)NC(=O)[C@@H](NC(=O)[C@H](CCCNC(=N)N)NC(=O)CCCCCNC(=S)Nc1ccc2c(c1)C(=O)OC21c2ccc(O)cc2Oc2cc(O)ccc21)[C@@H](C)CC)C(=O)N[C@H](C(=O)N[C@@H](CCCCN)C(=O)O)[C@@H](C)O` [S282A] ({FITC-Ahx}-RISRDSPYGLAQGITK-OH), the negative-log Kd (pKd) is 4.95.
Still for that read-out and setting: in the case of `CC[C@H](C)[C@H](NC(=O)CNC(=O)[C@H](CCC(N)=O)NC(=O)[C@H](CO)NC(=O)[C@H](CC(C)C)NC(=O)CNC(=O)[C@H](Cc1ccc(OP(=O)(O)O)cc1)NC(=O)[C@@H]1CCCN1C(=O)[C@H](CO)NC(=O)[C@H](CC(=O)O)NC(=O)[C@H](CCCNC(=N)N)NC(=O)[C@H](CO)NC(=O)[C@@H](NC(=O)[C@H](CCCNC(=N)N)NC(=O)CCCCCNC(=S)Nc1ccc2c(c1)C(=O)OC21c2ccc(O)cc2Oc2cc(O)ccc21)[C@@H](C)CC)C(=O)N[C@H](C(=O)N[C@@H](CCCCN)C(=O)O)[C@@H](C)O` [Y279phos] ({FITC-Ahx}-RISRDSP[pY]GLSQGITK-OH) it was 4.79; in that of `CC[C@H](C)[C@H](NC(=O)CNC(=O)[C@H](CCC(N)=O)NC(=O)[C@H](CO)NC(=O)[C@H](CC(C)C)NC(=O)CNC(=O)[C@H](Cc1ccc(O)cc1)NC(=O)[C@@H]1CCCN1C(=O)[C@H](CO)NC(=O)[C@H](CC(=O)O)NC(=O)[C@H](CCCNC(=N)N)NC(=O)[C@H](CO)NC(=O)[C@@H](NC(=O)[C@H](CCCNC(=N)N)NC(=O)CCCCCNC(=S)Nc1ccc2c(c1)C(=O)OC21c2ccc(O)cc2Oc2cc(O)ccc21)[C@@H](C)CC)C(=O)N[C@H](C(=O)N[C@@H](CCCCN)C(=O)O)[C@@H](C)O` [unphosphorylated peptides] ({FITC-Ahx}-RISRDSPYGLSQGITK-OH), 5.24.
With “{FITC}-[Ahx]RISRDSPYGL[pS]QGITK-OH [S282phos, FITC-tagged HIM-3 closure motif peptide phosphorylated at Ser282]”, the “Kd (HTP-2 binding)” value is given as “not significant binding”.
On the same count and under the same terms, in the case of “{FITC}-[Ahx]RISRDSP[pY]GL[pS]QGITK-OH [Y279phos_S282phos, FITC-tagged HIM-3 closure motif peptide phosphorylated at Tyr279 and Ser282]” it was “not significant binding”.
